Experiment [1] in a line: Liposome dye release. As to conditions: egg PC liposomes. The protocol: In this example, a dye pair consisting of the fluorescent molecule 8-aminonapthalene-1,3,6-trisulfonic acid (ANTS) and its quencher molecule p-xylene-bis-pyridinium bromide (DPX) are used. The mixture of free dye molecules, dye free liposomes, and liposomes containing encapsulated ANTS-DPX are separated by size exclusion chromatography. In the assay, the test peptide is incubated with the ANTS-DPX containing liposomes and the fluorescence due to ANTS release to the outside of the liposome is measured over time.
Using this assay, peptide activity, measured by dye release, is shown to be extremely sensitive to the composition of the liposomes at many liposome to peptide ratios (L/P) (FIG. 7). […] This […] selectivity may mimic that observed […] for bacterial cells in the presence of mammalian cells.
ANTS/DPX can be replaced with fluorescein isothiocyanate-labeled dextran (FD-4), molecular weight 4,400, in the egg PC liposomes.

Experiment [2] deals with S. epidermidis (ATCC # 12228). In words: In vivo efficacy, S. epidermidis infection. The note with it: iv.
Experiment [3] concerns S. pyogenes. In words: Agarose dilution assay (MIC). The format is cell-based. As to conditions: S. pyogenes strain SPY006.
The subject of experiment [4] is S. aureus. In words: microbe, parasite or virus in culture. It counts as cell-based.
The test system of experiment [5] is tolerant organisms. In words: Overcoming tolerance: MBC and MIC by agarose dilution, antibiotic alone and with peptide. It counts as cell-based. The note with it: combination of Vancomycin and peptide, organisms of Table 18.

As to ILKKWPWWPWRRK [MBI 11CN], the “FD-4 (MW 4,400) release” value in experiment [1] is listed as “No increase in FD-4 fluorescence”. Besides, the efficacy result is listed as “less activity” in experiment [2] (30 minutes post-infection), “no significant effect” in experiment [2] (60 minutes post-infection) and “Efficacy is observed at all three dose levels” in experiment [2] (treatment 15 minutes post-infection). The “survival of the mice” value in experiment [2] (formulation D) is reported as “prolongs the survival of the mice”.
As usually defined, the MIC is the lowest concentration that inhibits growth of the organism. In experiment [3], ILRWPWWPWRRK [MBI 11B7CN] displayed an MIC of 16 µg/mL.
Regarding KKWWRRALQGLKTAGPAIQSVLNK [MBI 21A2], in experiment [4] (S. aureus SA25), the “Ciprofloxacin MIC + Peptide” value was 1 µg/mL and the “Peptide MIC + Ciprofloxacin” value was determined as 1 µg/mL. Besides, the “Peptide MIC Alone” value in experiment [4] (S. aureus SA25, Ciprofloxacin section) amounted to 16 µg/mL. Also, in experiment [4] (antibiotic agents combined with peptide), the “acquired resistance of S. aureus to piperacillin and ciprofloxacin” value was “overcome”. Moreover, the FIC in experiment [4] (peptide + Ciprofloxacin, S. aureus SA25) turned out to be 0.56.
Take KWKSFIKKLTSAAKKVVTTAKPLISS [MBI 26]: the “tolerance (MBC:MIC) to Vancomycin” value in experiment [5] is “overcomes the tolerance”.

(Values after patent publication US20020035061A1, “COMPOSITIONS AND METHODS FOR TREATING INFECTIONS USING CATIONIC PEPTIDES ALONE OR IN COMBINATION WITH ANTIBIOTICS” (priority 1996, published 2002).)
